Reference: paper PMC9403976, “Elucidating the path to Plasmodium prolyl-tRNA synthetase inhibitors that overcome halofuginone resistance” (Nature Communications, 2022)
Several values for one entry are separate records, joined by “and”; a condition that tells them apart may be missing. Equal entries are not always repeated. Where two headings read alike, the source gives them in different places.

What was measured:
[1] = biological target: T1, PfcProRS (Plasmodium falciparum, UniProt Q8I5R7); format: binding; details: single replicates
T1 construct: made in house; host or cells: E. coli SoluBL-21
T1 sequence (Q8I5R7 249-746): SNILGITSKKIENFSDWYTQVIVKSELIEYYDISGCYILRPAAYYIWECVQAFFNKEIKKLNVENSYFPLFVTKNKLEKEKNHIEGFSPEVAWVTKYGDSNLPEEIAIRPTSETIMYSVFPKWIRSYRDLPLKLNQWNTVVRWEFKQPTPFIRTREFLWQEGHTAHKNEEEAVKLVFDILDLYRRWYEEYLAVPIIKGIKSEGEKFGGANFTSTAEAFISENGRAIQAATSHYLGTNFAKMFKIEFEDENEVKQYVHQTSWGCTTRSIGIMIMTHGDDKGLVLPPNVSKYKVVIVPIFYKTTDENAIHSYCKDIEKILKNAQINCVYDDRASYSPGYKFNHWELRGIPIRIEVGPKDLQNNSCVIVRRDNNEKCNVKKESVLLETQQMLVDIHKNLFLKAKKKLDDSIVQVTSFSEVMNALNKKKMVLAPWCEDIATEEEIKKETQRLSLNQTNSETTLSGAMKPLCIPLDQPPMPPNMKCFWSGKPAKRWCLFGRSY

[2] = biological target: HsProRS (Homo sapiens, UniProt P07814); test: TR-FRET ligand displacement assay with tracer MAT379 (CoraFluor-1-Halo and anti-His6 antibody formats); format: binding; parameters: made in house; host or cells: E. coli SoluBL-21; details: for TR-FRET dose-response, normalized signal (SI Fig 11): individual replicates
HsProRS, sequence (P07814 996-1512): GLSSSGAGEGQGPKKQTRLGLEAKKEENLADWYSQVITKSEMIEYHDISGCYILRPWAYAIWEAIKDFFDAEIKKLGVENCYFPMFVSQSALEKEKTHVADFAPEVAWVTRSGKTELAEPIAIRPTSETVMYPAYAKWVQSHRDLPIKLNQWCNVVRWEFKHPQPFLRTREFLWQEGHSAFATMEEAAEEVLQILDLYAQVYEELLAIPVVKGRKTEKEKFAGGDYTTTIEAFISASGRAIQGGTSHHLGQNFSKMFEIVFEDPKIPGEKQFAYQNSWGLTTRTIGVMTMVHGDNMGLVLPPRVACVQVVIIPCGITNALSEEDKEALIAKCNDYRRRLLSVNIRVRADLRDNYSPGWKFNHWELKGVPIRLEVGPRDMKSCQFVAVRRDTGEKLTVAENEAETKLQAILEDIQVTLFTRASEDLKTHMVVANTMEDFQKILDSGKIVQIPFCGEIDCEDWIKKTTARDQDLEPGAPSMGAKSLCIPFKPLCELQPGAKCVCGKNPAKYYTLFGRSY

Question: With `NC1CCN(C(=O)Nc2nccnc2C(=O)NC2Cc3ccccc3C2)CC1` [compound 8] as the compound, how does the “dose-response signal (normalized), SI Fig 8” value ([1]; Log[inhibitor] (M) -5.000) read?
Answer: 9.61E-01 and 8.92E-01 and 8.44E-01

Question: What about the “dose-response signal (normalized), SI Fig 8” value ([1]; Log[inhibitor] (M) -5.301) of the same compound?
Answer: 8.74E-01 and 9.88E-01 and 9.73E-01

Question: And the “dose-response signal (normalized), SI Fig 8” value ([1]; Log[inhibitor] (M) -5.601)?
Answer: 9.98E-01 and 1.02E+00 and 1.04E+00

Question: What about the “dose-response signal (normalized), SI Fig 8” value ([1]; Log[inhibitor] (M) -5.904) of the same compound?
Answer: 1.08E+00 and 1.04E+00 (2×)

Question: And the “dose-response signal (normalized), SI Fig 8” value ([1]; Log[inhibitor] (M) -6.208)?
Answer: 1.22E+00 and 1.03E+00 and 1.05E+00

Question: And the “dose-response signal (normalized), SI Fig 8” value ([1]; Log[inhibitor] (M) -6.509)?
Answer: 1.14E+00 and 1.03E+00 and 1.04E+00

Question: And the “dose-response signal (normalized), SI Fig 8” value ([1]; Log[inhibitor] (M) -6.796)?
Answer: 1.01E+00 and 1.02E+00 and 1.08E+00

Question: What about the “dose-response signal (normalized), SI Fig 8” value ([1]; Log[inhibitor] (M) -7.108) of the same compound?
Answer: 9.50E-01 and 9.64E-01 and 1.00E+00

Question: And the “dose-response signal (normalized), SI Fig 8” value ([1]; Log[inhibitor] (M) -7.409)?
Answer: 1.03E+00 and 1.01E+00 and 1.12E+00

Question: And the “dose-response signal (normalized), SI Fig 8” value ([1]; Log[inhibitor] (M) -7.710)?
Answer: 1.12E+00 and 1.00E+00 and 9.44E-01

Question: And the “dose-response signal (normalized), SI Fig 8” value ([1]; Log[inhibitor] (M) -8.000)?
Answer: 1.00E+00 and 9.85E-01 and 1.03E+00

Question: What about the “dose-response signal (normalized), SI Fig 8” value ([1]; Log[inhibitor] (M) -8.301) of the same compound?
Answer: 1.00E+00 and 9.83E-01 and 1.01E+00

Question: And the “dose-response signal (normalized), SI Fig 8” value ([1]; Log[inhibitor] (M) -8.602)?
Answer: 1.04E+00 (2×) and 1.03E+00

Question: And the “dose-response signal (normalized), SI Fig 8” value ([1]; Log[inhibitor] (M) -9.000)?
Answer: 9.59E-01 and 1.02E+00 and 1.11E+00

Question: What about the “dose-response signal (normalized), SI Fig 8” value ([1]; Log[inhibitor] (M) -9.301) of the same compound?
Answer: 9.77E-01 and 1.08E+00 and 1.13E+00

Question: What about the IC50 [2] of the same compound?
Answer: > 10 µM

Question: What about the “HsProRS % signal at 10 μM, + 100 μM proline” value ([2]; + 100 μM proline, 10 μM) of the same compound?
Answer: 64.1%

Question: What about the “normalized TR-FRET ligand displacement signal, dose-response replicates (SI Fig 6)” value ([2]; Log[inhibitor] (M) -5.000) of the same compound?
Answer: 7.72E-01 and 8.67E-01 and 9.20E-01

Question: What about the “TR-FRET dose-response, normalized signal (SI Fig 11)” value ([2]; Log[inhibitor] (M) -5.000) of the same compound?
Answer: 7.80E-01 and 8.21E-01 and 8.27E-01

Question: What about the “normalized TR-FRET ligand displacement signal, dose-response replicates (SI Fig 6)” value ([2]; Log[inhibitor] (M) -5.301) of the same compound?
Answer: 9.51E-01 and 8.63E-01 and 8.95E-01

Question: What about the “TR-FRET dose-response, normalized signal (SI Fig 11)” value ([2]; Log[inhibitor] (M) -5.301) of the same compound?
Answer: 9.22E-01 and 8.53E-01 and 9.03E-01

Question: And the “normalized TR-FRET ligand displacement signal, dose-response replicates (SI Fig 6)” value ([2]; Log[inhibitor] (M) -5.601)?
Answer: 9.39E-01 and 9.19E-01 and 9.88E-01

Question: And the “TR-FRET dose-response, normalized signal (SI Fig 11)” value ([2]; Log[inhibitor] (M) -5.601)?
Answer: 8.79E-01 and 9.90E-01 and 8.75E-01

Question: And the “normalized TR-FRET ligand displacement signal, dose-response replicates (SI Fig 6)” value ([2]; Log[inhibitor] (M) -5.904)?
Answer: 9.40E-01 and 9.19E-01 and 1.05E+00

Question: What about the “TR-FRET dose-response, normalized signal (SI Fig 11)” value ([2]; Log[inhibitor] (M) -5.904) of the same compound?
Answer: 9.88E-01 and 9.41E-01 and 9.72E-01

Question: And the “normalized TR-FRET ligand displacement signal, dose-response replicates (SI Fig 6)” value ([2]; Log[inhibitor] (M) -6.208)?
Answer: 8.89E-01 and 1.04E+00 and 1.05E+00

Question: And the “TR-FRET dose-response, normalized signal (SI Fig 11)” value ([2]; Log[inhibitor] (M) -6.208)?
Answer: 9.38E-01 (2×) and 9.73E-01

Question: What about the “normalized TR-FRET ligand displacement signal, dose-response replicates (SI Fig 6)” value ([2]; Log[inhibitor] (M) -6.509) of the same compound?
Answer: 1.02E+00 and 9.90E-01 and 9.84E-01

Question: And the “TR-FRET dose-response, normalized signal (SI Fig 11)” value ([2]; Log[inhibitor] (M) -6.509)?
Answer: 9.67E-01 and 9.58E-01 and 9.39E-01

Question: And the “normalized TR-FRET ligand displacement signal, dose-response replicates (SI Fig 6)” value ([2]; Log[inhibitor] (M) -6.796)?
Answer: 1.02E+00 and 1.08E+00 and 1.11E+00

Question: And the “TR-FRET dose-response, normalized signal (SI Fig 11)” value ([2]; Log[inhibitor] (M) -6.796)?
Answer: 9.44E-01 and 9.26E-01 and 9.45E-01

Question: What about the “normalized TR-FRET ligand displacement signal, dose-response replicates (SI Fig 6)” value ([2]; Log[inhibitor] (M) -7.108) of the same compound?
Answer: 1.06E+00 and 1.03E+00 and 1.02E+00

Question: What about the “TR-FRET dose-response, normalized signal (SI Fig 11)” value ([2]; Log[inhibitor] (M) -7.108) of the same compound?
Answer: 8.82E-01 and 8.87E-01 and 8.97E-01

Question: What about the “normalized TR-FRET ligand displacement signal, dose-response replicates (SI Fig 6)” value ([2]; Log[inhibitor] (M) -7.409) of the same compound?
Answer: 1.03E+00 (2×) and 9.94E-01

Question: What about the “TR-FRET dose-response, normalized signal (SI Fig 11)” value ([2]; Log[inhibitor] (M) -7.409) of the same compound?
Answer: 8.83E-01 and 9.01E-01 and 8.97E-01

Question: What about the “normalized TR-FRET ligand displacement signal, dose-response replicates (SI Fig 6)” value ([2]; Log[inhibitor] (M) -7.710) of the same compound?
Answer: 9.60E-01 and 1.05E+00 and 1.02E+00

Question: And the “TR-FRET dose-response, normalized signal (SI Fig 11)” value ([2]; Log[inhibitor] (M) -7.710)?
Answer: 9.46E-01 and 8.63E-01 and 9.47E-01

Question: And the “normalized TR-FRET ligand displacement signal, dose-response replicates (SI Fig 6)” value ([2]; Log[inhibitor] (M) -8.000)?
Answer: 8.80E-01 and 1.08E+00 and 9.66E-01

Question: And the “TR-FRET dose-response, normalized signal (SI Fig 11)” value ([2]; Log[inhibitor] (M) -8.000)?
Answer: 9.68E-01 and 9.54E-01 and 9.46E-01

Question: And the “normalized TR-FRET ligand displacement signal, dose-response replicates (SI Fig 6)” value ([2]; Log[inhibitor] (M) -8.301)?
Answer: 9.78E-01 and 9.63E-01 and 8.97E-01

Question: And the “TR-FRET dose-response, normalized signal (SI Fig 11)” value ([2]; Log[inhibitor] (M) -8.301)?
Answer: 9.20E-01 and 9.17E-01 and 9.26E-01

Question: What about the “normalized TR-FRET ligand displacement signal, dose-response replicates (SI Fig 6)” value ([2]; Log[inhibitor] (M) -8.602) of the same compound?
Answer: 9.99E-01 and 9.46E-01 and 8.78E-01

Question: And the “TR-FRET dose-response, normalized signal (SI Fig 11)” value ([2]; Log[inhibitor] (M) -8.602)?
Answer: 9.38E-01 and 9.59E-01 and 9.18E-01

Question: And the “normalized TR-FRET ligand displacement signal, dose-response replicates (SI Fig 6)” value ([2]; Log[inhibitor] (M) -9.000)?
Answer: 8.55E-01 and 9.99E-01 and 1.05E+00

Question: And the “TR-FRET dose-response, normalized signal (SI Fig 11)” value ([2]; Log[inhibitor] (M) -9.000)?
Answer: 9.56E-01 and 9.64E-01 and 9.58E-01

Question: And the “normalized TR-FRET ligand displacement signal, dose-response replicates (SI Fig 6)” value ([2]; Log[inhibitor] (M) -9.301)?
Answer: 1.04E+00 and 8.74E-01 and 1.01E+00

Question: What about the “TR-FRET dose-response, normalized signal (SI Fig 11)” value ([2]; Log[inhibitor] (M) -9.301) of the same compound?
Answer: 9.54E-01 and 1.00E+00 (2×)

Question: What about the “HsProRS % signal at 10 μM” value ([2]; no added proline/ATP (-), 10 μM) of the same compound?
Answer: 81.0%

Question: What about the IC50 ([2]; read-out: HsProRS IC50 + 100 μM proline, + 100 μM proline) of the same compound?
Answer: > 10 µM
